In ChEMBL document CHEMBL3784979, “Design, synthesis and biological evaluation of novel benzimidazole-2-substituted phenyl or pyridine propyl ketene derivatives as antitumour agents” (Eur J Med Chem, 2016):
Active and inactive are the calls of the source. The rule behind the calls is not given here.

Experiments:
[1] = Antiproliferative activity against human HCT116 cells after 48 hrs by MTT assay; assay type: functional, cell-based; details: HCT-116, 48 h
[2] = test system: HepG2; assay: Antiproliferative activity against human HepG2 cells after 48 hrs by MTT assay; assay type: functional, cell-based; details: HepG2, 48 h
[3] = test system: MCF7; assay: Antiproliferative activity against human MCF7 cells after 48 hrs by MTT assay; assay type: functional, cell-based; details: MCF7, 48 h
[4] = Antiproliferative activity against p53 deficient human HCT116 cells after 48 hrs by MTT assay; assay type: functional, cell-based; details: HCT-116, 48 h
[5] = Cell cycle arrest in human HCT116 cells assessed as accumulation at S phase at 0.04 uM after 72 hrs by propidium iodide staining based flow cytometry (reference value: 40.55 +/- 1.36%); assay type: functional; details: HCT-116
[6] = target: T1, Tumour suppressor p53/oncoprotein Mdm2 (Homo sapiens) (UniProt P04637+Q00987); assay: Inhibition of MDM2/P53 protein interaction in human HCT116 cells at 0.1 to 1 uM after 24 hrs by immunoprecipitation analysis; assay type: cell-based; details: HCT-116
T1 sequence (P04637 whole entry, looked up): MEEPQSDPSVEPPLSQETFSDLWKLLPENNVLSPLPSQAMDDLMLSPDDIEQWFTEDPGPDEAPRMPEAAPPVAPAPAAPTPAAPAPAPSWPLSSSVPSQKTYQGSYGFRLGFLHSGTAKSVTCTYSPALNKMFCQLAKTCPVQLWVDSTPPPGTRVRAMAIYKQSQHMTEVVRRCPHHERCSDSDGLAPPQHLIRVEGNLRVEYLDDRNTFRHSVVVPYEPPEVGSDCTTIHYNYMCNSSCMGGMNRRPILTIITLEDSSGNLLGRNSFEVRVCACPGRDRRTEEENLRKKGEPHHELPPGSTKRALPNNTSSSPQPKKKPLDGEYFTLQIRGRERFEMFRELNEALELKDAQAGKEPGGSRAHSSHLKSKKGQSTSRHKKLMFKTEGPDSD
T1 sequence (Q00987 whole entry, looked up): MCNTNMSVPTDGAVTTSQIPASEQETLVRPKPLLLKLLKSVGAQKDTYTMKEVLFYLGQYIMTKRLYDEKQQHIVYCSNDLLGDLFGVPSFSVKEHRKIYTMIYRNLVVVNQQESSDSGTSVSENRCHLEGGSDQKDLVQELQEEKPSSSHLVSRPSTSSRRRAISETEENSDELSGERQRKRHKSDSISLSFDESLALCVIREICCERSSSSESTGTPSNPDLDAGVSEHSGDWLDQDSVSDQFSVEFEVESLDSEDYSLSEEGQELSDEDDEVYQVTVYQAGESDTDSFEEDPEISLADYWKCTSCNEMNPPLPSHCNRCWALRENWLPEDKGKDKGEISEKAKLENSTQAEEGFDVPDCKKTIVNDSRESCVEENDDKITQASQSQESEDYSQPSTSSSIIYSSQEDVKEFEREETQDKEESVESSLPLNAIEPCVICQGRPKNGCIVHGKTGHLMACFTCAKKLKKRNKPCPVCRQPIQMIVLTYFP

[7] = Cell cycle arrest in human HCT116 cells assessed as accumulation at G2 phase at 0.04 uM after 72 hrs by propidium iodide staining based flow cytometry (reference value: 27.73 +/- 3.56%); assay type: functional; details: HCT-116
[8] = Cell cycle arrest in human HCT116 cells assessed as accumulation at G1 phase at 0.04 uM after 72 hrs by propidium iodide staining based flow cytometry (reference value: 31.72 +/- 2.21%); assay type: functional; details: HCT-116
[9] = test system: HCT-116; assay: Antitumor activity against human HCT116 cells xenografted in ip dosed BALB/c mouse assessed as tumor growth inhibition administered twice weekly for 4 weeks measured 24 hrs post last dose; assay type: functional, organism-based
[10] = Toxicity in ip dosed BALB/c mouse by bliss test; assay type: organism-based; details: in vivo
[11] = test system: Mus musculus; assay: Toxicity in BALB/c mouse assessed as change in body weight at 100 to 200 mg/kg, ip twice weekly for 4 weeks measured 24 hrs post last dose; assay type: organism-based; details: in vivo
[12] = test system: HCT-116; assay: Potency index, ratio of 5-fluorouracil IC50 to compound IC50 for human HCT116 cells; assay type: functional
[13] = Antitumor activity against human HCT116 cells xenografted in BALB/c mouse assessed as tumor growth inhibition at 200 mg/kg, ip twice weekly for 4 weeks measured 24 hrs post last dose relative to control; assay type: functional; details: HCT-116, ip, read-out: TGI
[14] = Cell cycle arrest in human HCT116 cells assessed as accumulation at S phase after 72 hrs by propidium iodide staining based flow cytometry (reference value: 40.55 +/- 1.36%); assay type: functional; details: HCT-116
[15] = Cell cycle arrest in human HCT116 cells assessed as accumulation at G2 phase after 72 hrs by propidium iodide staining based flow cytometry (reference value: 27.73 +/- 3.56%); assay type: functional; details: HCT-116
[16] = Cell cycle arrest in human HCT116 cells assessed as accumulation at G1 phase after 72 hrs by propidium iodide staining based flow cytometry (reference value: 31.72 +/- 2.21%); assay type: functional; details: HCT-116
[17] = test system: Mus musculus; assay: Toxicity in BALB/c mouse assessed as reduction in body weight at 12.5 mg/kg, ip twice weekly for 4 weeks measured 24 hrs post last dose; assay type: organism-based; details: in vivo
[18] = Antitumor activity against human HCT116 cells xenografted in BALB/c mouse assessed as tumor growth inhibition at 12.5 mg/kg, ip twice weekly for 4 weeks measured 24 hrs post last dose relative to control; assay type: functional; details: HCT-116, ip, read-out: TGI
[19] = Cell cycle arrest in human HCT116 cells assessed as accumulation at S phase at 0.06 uM after 72 hrs by propidium iodide staining based flow cytometry (reference value: 40.55 +/- 1.36%); assay type: functional; details: HCT-116
[20] = Cell cycle arrest in human HCT116 cells assessed as accumulation at G1 phase at 0.06 uM after 72 hrs by propidium iodide staining based flow cytometry (reference value: 31.72 +/- 2.21%); assay type: functional; details: HCT-116
[21] = Cell cycle arrest in human HCT116 cells assessed as accumulation at G2 phase at 0.06 uM after 72 hrs by propidium iodide staining based flow cytometry (reference value: 27.73 +/- 3.56%); assay type: functional; details: HCT-116
[22] = target: T1, Tumour suppressor p53/oncoprotein Mdm2 (Homo sapiens); assay: Inhibition of MDM2/P53 protein interaction in human HCT116 cells at 0.5 to 5 uM after 24 hrs by immunoprecipitation analysis; assay type: cell-based; details: HCT-116
[23] = Cell cycle arrest in human HCT116 cells assessed as accumulation at S phase at 0.58 uM after 72 hrs by propidium iodide staining based flow cytometry (reference value: 40.55 +/- 1.36%); assay type: functional; details: HCT-116
[24] = Cell cycle arrest in human HCT116 cells assessed as accumulation at G2 phase at 0.58 uM after 72 hrs by propidium iodide staining based flow cytometry (reference value: 27.73 +/- 3.56%); assay type: functional; details: HCT-116
[25] = Cell cycle arrest in human HCT116 cells assessed as accumulation at G1 phase at 0.58 uM after 72 hrs by propidium iodide staining based flow cytometry (reference value: 31.72 +/- 2.21%); assay type: functional; details: HCT-116

SMILES	IC50 [1] [µM]	IC50 [2] [µM]	IC50 [3] [µM]	also measured
O=c1[nH]cc(F)c(=O)[nH]1 [FLUOROURACIL]	57	174	223	–
O=C(/C=C/c1ccccc1)c1nc2ccccc2[nH]1	0.2	6.3	39.8	IC50 [4]: 2.07 µM
CC(=O)O[C@H]1C(=O)[C@@]2(C)[C@H]([C@H](OC(=O)c3ccccc3)[C@]3(O)C[C@H](OC(=O)[C@H](O)[C@@H](NC(=O)c4ccccc4)c4ccccc4)C(C)=C1C3(C)C)[C@]1(OC(C)=O)CO[C@@H]1C[C@@H]2O [PACLITAXEL]	0.0673	0.0217	–	–
O=C(/C=C/c1cccc(Cl)c1)c1nc2ccccc2s1	> 100	> 100	> 100	–
O=C(/C=C/c1cccc(Cl)c1)c1nc2ccccc2o1	> 100	> 100	> 100	–
O=C(/C=C/c1ccc(Br)cc1)c1nc2ccccc2[nH]1	19.6	10.9	52.7	–
O=C(/C=C/c1cccc(Br)c1)c1nc2ccccc2[nH]1	0.79	1.59	19.3	IC50 [4]: 2.94 µM
COc1ccc(/C=C/C(=O)c2nc3ccccc3[nH]2)cc1	13.1	7.41	> 100	–
COc1cccc(/C=C/C(=O)c2nc3ccccc3o2)c1	> 100	> 100	> 100	–
O=C(/C=C/c1cccc(Cl)c1)c1nc2ccccc2[nH]1	0.03	0.75	9.8	Activity [5]: 17.2%; inhibition [6]: Active; Activity [7]: 17.8%; Activity [8]: 65%; IC50 [4]: 1.95 µM; TGI [9]: Dose-dependent effect; LD50 [10]: 692 mg/kg; Activity [11]: Non-toxic; Ratio IC50 [12]: 950; inhibition in vivo at 200 mg/kg [13]: 74.6%
COc1ccc(C2=N[C@H](c3ccc(Cl)cc3)[C@H](c3ccc(Cl)cc3)N2C(=O)N2CCNC(=O)C2)c(OC(C)C)c1	–	–	–	Activity [14]: 24.8%; Activity [15]: 12.7%; Activity [16]: 62.5%
O=C(/C=C/c1cccnc1)c1nc2ccccc2[nH]1	15.3	8.48	21.7	–
COc1ccccc1/C=C/C(=O)c1nc2ccccc2[nH]1	4.79	7.99	41.3	–
CCc1c2c(nc3ccc(OC(=O)N4CCC(N5CCCCC5)CC4)cc13)-c1cc3c(c(=O)n1C2)COC(=O)[C@]3(O)CC [IRINOTECAN]	–	–	–	Activity [17]: 3.66 g; inhibition in vivo at 12.5 mg/kg [18]: 70.2%
COc1cccc(/C=C/C(O)c2nc3ccccc3[nH]2)c1 (stereo not drawn)	> 100	> 100	> 100	–
O=C(/C=C/c1ccccn1)c1nc2ccccc2[nH]1	0.06	0.34	3.64	inhibition [6]: Active; Activity [19]: 18.9%; IC50 [4]: 1.45 µM; TGI [9]: Dose-dependent effect; Activity [20]: 64.5%; LD50 [10]: 634 mg/kg; Activity [11]: Non-toxic; Ratio IC50 [12]: 950; Activity [21]: 16.6%
OC(/C=C/c1cccc(Cl)c1)c1nc2ccccc2[nH]1 (stereo not drawn)	> 100	> 100	> 100	–
O=C(/C=C/c1ccccn1)c1nc2ccccc2o1	> 100	> 100	> 100	–
COc1cccc(/C=C/C(=O)c2nc3ccccc3[nH]2)c1	0.58	5.68	21.7	inhibition [22]: Active; Activity [23]: 19%; IC50 [4]: 4.75 µM; TGI [9]: Dose-dependent effect; Activity [24]: 20.5%; LD50 [10]: 1220 mg/kg; Activity [25]: 60.5%; Activity [11]: Non-toxic
O=C(/C=C/c1ccncc1)c1nc2ccccc2[nH]1	0.71	6.94	20.9	IC50 [4]: 5.61 µM
OC(/C=C/c1ccccn1)c1nc2ccccc2[nH]1 (stereo not drawn)	> 100	> 50	> 100	–
O=C(CCc1ccccn1)c1nc2ccccc2[nH]1	> 100	> 100	> 100	–
O=C(/C=C/c1ccccn1)c1nc2ccccc2s1	> 100	> 100	> 100	–
Cc1ccccc1/C=C/C(=O)c1nc2ccccc2[nH]1	0.86	6.71	62.5	IC50 [4]: 4.39 µM
O=C(/C=C/c1ccc(Cl)cc1)c1nc2ccccc2[nH]1	6.79	12.5	24.8	–
O=C(CCc1cccc(Cl)c1)c1nc2ccccc2[nH]1	> 100	> 100	> 100	–
COc1cccc(/C=C/C(=O)c2nc3ccccc3s2)c1	> 100	> 100	> 100	–
O=C(/C=C/c1ccccc1Br)c1nc2ccccc2[nH]1	16.4	29.2	50.9	–
